Read-outs that look alike come from different tables or passages of the source.
What was measured:
[1] = tested on: HCV replicon A156T variant in Huh7 cells; experiment: microbe, parasite or virus in culture; type: cell-based, Hepatitis C virus; conditions: for EC50: Hepatitis C virus; for Replicon EC50 (Fold change) A156T: Table 4, relative to WT replicon
Procedure: (§1) Mutations (R155K, A516T, D168A and D168V) were constructed by site-directed mutagenesis using a Con1 (genotype 1b) luciferase reporter replicon containing the H77 (genotype 1a) NS3 sequence.
(§2) Replicon RNA of each protease variant was introduced into Huh7 cells by electroporation. Replication was then assessed in the presence of increasing concentrations of protease inhibitors by measuring luciferase activity (relative light units) 96 h after electroporation.
(§3) Mutations (R155K, D168A and A156T) were constructed by site-directed mutagenesis using a Con1 (genotype 1b) luciferase reporter replicon containing the H77 (genotype 1a) NS3 sequence.^6 Replicon RNA of each protease variant was introduced into Huh7 cells by electroporation. Replication was then assessed in the presence of increasing concentrations of protease inhibitors by measuring luciferase activity (relative light units) 96 h after electroporation.

[2] = tested on: HCV replicon R155K variant in Huh7 cells; experiment: microbe, parasite or virus in culture; type: cell-based, Hepatitis C virus; conditions: for EC50: Hepatitis C virus; for Replicon EC50 (Fold change) R155K: Table 4, relative to WT replicon
Procedure: as §1, §2, §3

[3] = tested on: HCV replicon D168A variant in Huh7 cells; experiment: microbe, parasite or virus in culture; type: cell-based, Hepatitis C virus; conditions: for EC50: Hepatitis C virus; for Replicon EC50 (Fold change) D168A: Table 4, relative to WT replicon
Procedure: as §1, §2, §3

GT3a NS3/4A protease = target: T1, GT3a NS3/4A protease (Hepatitis C virus genotype 3a, UniProt Q81495); experiment: biochemical; conditions: for Ki (Fold change) GT3a NS3/4A Protease: Table 3, Ki GT3a relative to GT1a WT
T1 construct: drug-resistant variant D168A, and GT3a NS3/4A protease; made in house; host or cells: Escherichia coli BL21(DE3)
T1 sequence (Q81495 1033-1214): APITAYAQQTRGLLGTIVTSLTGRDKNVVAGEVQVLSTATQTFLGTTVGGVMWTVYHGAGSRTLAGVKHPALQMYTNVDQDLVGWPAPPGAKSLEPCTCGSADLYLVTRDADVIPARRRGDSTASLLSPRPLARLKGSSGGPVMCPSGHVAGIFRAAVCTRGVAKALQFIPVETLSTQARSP
Procedure: (§4) For each assay, 2 nM of NS3/4A protease (GT1, D168A and GT3) was pre-incubated at room temperature for 1 h with increasing concentration of inhibitors in assay buffer [50 mM Tris, 5% glycerol, 10 mM DTT, 0.6 mM LDAO, and 4% dimethyl sulfoxide]. Inhibition assays were performed in nonbinding surface 96-well black half-area plates (Corning) in a reaction volume of 60 μt. […] Three independent data sets were collected for each inhibitor with each protease construct.

[4] = target: T2, GT1a D168A NS3/4A protease (UniProt P27958, C1185S/D1194A, species not given); type: biochemical, Hepatitis C virus; conditions: read-out: Ki (nM) GT1a D168A NS3/4A Protease
T2 construct: Ki (nM) GT1a D168A NS3/4A Protease
Procedure: as §4
as §4, with “(GT1a” for “(GT1, D168A”, “D168A)” for “GT3)”, “(50” for “[50”, “sulfoxide, pH 7.5).” for “sulfoxide].”, “non-binding” for “nonbinding”, “μL.” for “μt.”
(§5) For each assay, 2 nM of NS3/4A protease (GT1a, R155K and D168A) was pre-incubated at room temperature for 1 h with increasing concentration of inhibitors in assay buffer (50 mM Tris, 5% glycerol, 10 mM DTT, 0.6 mM LDAO, and 4% dimethyl sulfoxide, pH 7.5). Inhibition assays were performed in non-binding surface 96-well black half-area plates (Corning) in a reaction volume of 60 μL. […] Three independent data sets were collected for each inhibitor with each protease construct. […] Gibbs free energy of binding was calculated using the following equation: ΔG=RTlnKi

[5] = target: GT1a D168A NS3/4A protease; type: biochemical, Hepatitis C virus; conditions: Table 3; Ki D168A relative to GT1a WT
Procedure: as §4
(§6) For each assay, 2 nM of NS3/4A protease (GT1a and D168A) was pre-incubated at room temperature for 1 h with increasing concentration of inhibitors in assay buffer (50 mM Tris, 5% glycerol, 10 mM DTT, 0.6 mM LDAO, and 4% dimethyl sulfoxide, pH 7.5). Inhibition assays were performed in non-binding surface 96-well black half-area plates (Corning) in a reaction volume of 60 μL. […] Three independent data sets were collected for each inhibitor with each protease construct.
as §5

[6] = target: T3, wild-type GT1a NS3/4A protease (UniProt P27958, C1185S, species not given); type: biochemical, Hepatitis C virus; conditions: read-out: Ki (nM) GT1a WT NS3/4A Protease
T3 construct: Ki (nM) GT1a WT NS3/4A Protease
Procedure: as §4, §6, §5

[7] = tested on: HCV replicon D168V variant in Huh7 cells; experiment: microbe, parasite or virus in culture; type: cell-based, Hepatitis C virus; conditions: for EC50: Hepatitis C virus; for Replicon EC50 (Fold change) D168V: Table 4, relative to WT replicon
Procedure: as §1
Replicon RNA of each protease variant was introduced into Huh7 cells by electroporation. Replication was then assessed in the presence of increasing concentrations of protease inhibitors by measuring luciferase activity (relative light units) 96 h after electroporation. […]

[8] = tested on: wild-type HCV replicon in Huh7 cells; experiment: Cell-based drug susceptibility (replicon) assay, wild-type; conditions: Hepatitis C virus, read-out: Replicon EC50 (nM) WT
Procedure: as §1, §2, §3

[9] = Huh-7, 96 h, read-out: Replicon EC50 (nM) A156T, Table 2, Huh7 cells, luciferase 96 h
[10] = Huh-7, read-out: Replicon EC50 (nM) A156T, Table 4
[11] = Huh-7, 96 h, read-out: Replicon EC50 (nM) R155K, Table 2, Huh7 cells, luciferase 96 h
[12] = Huh-7, read-out: Replicon EC50 (nM) R155K, Table 4
[13] = Huh-7, 96 h, read-out: Replicon EC50 (nM) D168A, Table 2, Huh7 cells, luciferase 96 h
[14] = Huh-7, read-out: Replicon EC50 (nM) D168A, Table 4
[15] = Huh-7, 96 h, read-out: Replicon EC50 (nM) D168V, Table 2, Huh7 cells, luciferase 96 h
[16] = Huh-7, read-out: Replicon EC50 (nM) D168V, Table 4
[17] = Huh-7, 96 h, Table 2, Huh7 cells, luciferase 96 h

Row | SMILES | EC50 [1, 9] [nM] | EC50 [1, 10] [nM] | Replicon EC50 (Fold change) A156T [1] | EC50 [2, 11] [nM] | EC50 [2, 12] [nM] | Replicon EC50 (Fold change) R155K [2] | EC50 [3, 13] [nM] | EC50 [3, 14] [nM] | Replicon EC50 (Fold change) D168A [3] | Ki (GT3a NS3/4A protease) [nM] | Ki (Fold change) GT3a NS3/4A Protease (GT3a NS3/4A protease) | Ki ([4]; Table 1) [nM] | Ki ([4]; Table 3) [nM] | Ki (Fold change) GT1a D168A NS3/4A Protease [5] | Ki ([6]; Table 1) [nM] | Ki ([6]; Table 3) [nM] | EC50 [7, 15] [nM] | EC50 [7, 16] [nM] | EC50 [8, 17] [nM] | EC50 ([8]; Huh-7, Table 4) [nM] | other results
1 | CCc1nc2ccc(OC)cc2nc1O[C@@H]1C[C@H]2C(=O)N[C@]3(C(=O)NS(=O)(=O)C4(C)CC4)C[C@H]3/C=C\CCCCC[C@H](NC(=O)OC3CCCC3)C(=O)N2C1 [Compound 23a, Cyclopentyl ((2R,6S,13aS,14aR,16aS,Z)-2-((3-ethyl-7-methoxyquinoxalin-2-yl)oxy)-14a-(((1-methylcyclopropyl)sulfonyl)carbamoyl)-5,16-dioxo-1,2,3,5,6,7,8,9,10,11,13a,14,14a,15,16,16a-hexadecahydrocyclopropa[e]pyrrolo[1,2-a][1,4]diazacyclopentadecin-6-yl)carbamate] | 10.6 | 10.6 | (66) fold | 2.07 | 2.07 | (13) fold | 3.45 | 3.45 | (22) fold | 186 | (136) fold | 55.2 | 55.2 ± 5.3 | (40) fold | 1.37 | 1.37 | 7.08 | 7.08 | 0.16 | 0.16 | Replicon EC50 (Fold change) D168V [7]: (44) fold
2 | COc1ccc2nc(Cl)c(O[C@@H]3C[C@H]4C(=O)N[C@]5(C(=O)NS(=O)(=O)C6CC6)C[C@H]5/C=C\CCCCC[C@H](NC(=O)OC5CCCC5)C(=O)N4C3)nc2c1 [Compound 22c, Cyclopentyl ((2R,6S,13aS,14aR,16aS,Z)-2-((3-chloro-7-methoxyquinoxalin-2-yl)oxy)-14a-((cyclopropylsulfonyl)carbamoyl)-5,16-dioxo-1,2,3,5,6,7,8,9,10,11,13a,14,14a,15,16,16a-hexadecahydrocyclopropa[e]pyrrolo[1,2-a][1,4]diazacyclopentadecin-6-yl)carbamate] | 3.55 | 3.55 | (24) fold | 0.59 | 0.59 | (4) fold | 1.32 | 1.32 | (9) fold | 85.6 | (175) fold | 30.6 | 30.6 ± 2.6 | (62) fold | 0.49 | 0.49 | 1.55 | 1.55 | 0.15 | 0.15 | Replicon EC50 (Fold change) D168V [7]: (10) fold
3 | COc1ccc2nc(Cl)c(O[C@@H]3C[C@H]4C(=O)N[C@]5(C(=O)NS(=O)(=O)C6(C)CC6)C[C@H]5/C=C\CCCCC[C@H](NC(=O)OC5CCCC5)C(=O)N4C3)nc2c1 [Compound 23c, Cyclopentyl ((2R,6S,13aS,14aR,16aS,Z)-2-((3-chloro-7-methoxyquinoxalin-2-yl)oxy)-14a-(((1-methylcyclopropyl)sulfonyl)carbamoyl)-5,16-dioxo-1,2,3,5,6,7,8,9,10,11,13a,14,14a,15,16,16a-hexadecahydrocyclopropa[e]pyrrolo[1,2-a][1,4]diazacyclopentadecin-6-yl)carbamate] | 4.32 | 4.32 | (29) fold | 0.56 | 0.56 | (4) fold | 0.97 | 0.97 | (6) fold | 61 | (139) fold | 25.7 | 25.7 ± 1.8 | (58) fold | 0.44 | 0.44 | 1.09 | 1.09 | 0.15 | 0.15 | Replicon EC50 (Fold change) D168V [7]: (7) fold
4 | COc1ccc2nc(C(F)(F)F)c(O[C@@H]3C[C@H]4C(=O)N[C@]5(C(=O)NS(=O)(=O)C6CC6)C[C@H]5/C=C\CCCCC[C@H](NC(=O)OC5CCCC5)C(=O)N4C3)nc2c1 [Compound 22d, Cyclopentyl ((2R,6S,13aS,14aR,16aS,Z)-14a-((cyclopropylsulfonyl)carbamoyl)-2-((7-methoxy-3-(trifluoromethyl)quinoxalin-2-yl)oxy)-5,16-dioxo-1,2,3,5,6,7,8,9,10,11,13a,14,14a,15,16,16a-hexadecahydrocyclopropa[e]pyrrolo[1,2-a][1,4]diazacyclopentadecin-6-yl)carbamate] | 117 | 117 | (24) fold | 7.97 | 7.97 | (2) fold | 15.1 | 15.1 | (3) fold | 757 | (100) fold | 115 | 115 ± 12 | (15) fold | 7.55 | 7.55 | 24 | 24 | 4.86 | 4.86 | Replicon EC50 (Fold change) D168V [7]: (5) fold
5 | COc1ccc2nc(C)c(O[C@@H]3C[C@H]4C(=O)N[C@]5(C(=O)NS(=O)(=O)C6(C)CC6)C[C@H]5/C=C\CCCCC[C@H](NC(=O)OC5CCCC5)C(=O)N4C3)nc2c1 [Compound 23b, Cyclopentyl ((2R,6S,13aS,14aR,16aS,Z)-2-((7-methoxy-3-methylquinoxalin-2-yl)oxy)-14a-(((1-methylcyclopropyl)sulfonyl)carbamoyl)-5,16-dioxo-1,2,3,5,6,7,8,9,10,11,13a,14,14a,15,16,16a-hexadecahydrocyclopropa[e]pyrrolo[1,2-a][1,4]diazacyclopentadecin-6-yl)carbamate] | 3.99 | 3.99 | – | 1.09 | 1.09 | – | 2.16 | 2.16 | – | 121 | – | 36.3 | 36.3 ± 1.8 | – | 1.13 | 1.13 | – | – | 0.13 | 0.13 | –

Source: patent publication US11472778B2, “Hepatitis C virus NS3/4A protease inhibitors” (priority 2017, dated 2022)
